Reference: patent US8450357B2, “Compositions comprising an aryl pyrazole and/or a formamidine, methods and uses thereof” (Merial Limited, priority 2008, dated 2013)

Legend:
[1] = Stability of amitraz in solution, aged at 50° C., HPLC; type: physicochemical; conditions: 28 % (w/v) Amitraz in Methyl isobutyl ketone (MIK)
Method: Formulation comprising amitraz in anisole (formulation L), butyl acetate (formulation M), methyl isobutyl ketone and ethyl benzoate were evaluated for stability by HPLC, similarly to the stability study for formulations comprising compound 1. Thus the formulations were tested for initial concentration of amitraz % (w/v) and aged at 50° C. for three months. The concentration of amitraz in each formulation was determined at 1 month, 2 months and 3 months to determine the stability of amitraz in each formulation.

[2] = tested on: Rhipicephalus sanguineus ticks; experiment: Study C: tick efficacy of Compound 1 and fipronil alone and with amitraz in dogs; type: in vivo
Method: The effectiveness of Compound 1 alone, fipronil alone, Compound 1 in combination with amitraz, or fipronil in combination with amitraz, when administered once as topical solutions to dogs against induced infestations of Rhipicephalus sanguineus and Ctenocephalides felis were determined in a third clinical study. Thirty-six beagles (18 males and 18 females) were selected for the study. Six replicates of 6 animals each were formed. Treatment Group 1 dogs were treated with a placebo. Treatment Groups 2, 3, 4, 5 and 6 received their respective treatments as a topical spot-on application once on Day 0. Each formulation included diethyleneglycol monoethyl ether (transcutol) as carrier. The Treatment Groups were: Treatment Group 2: fipronil at 0.1 mL/kg body weight (10 mg/kg); Treatment Group 3: Compound 1 at 0.1 mL/kg (10 mg/kg) body weight; Treatment Group 4: Compound 1 at 0.2 mL/kg (20 mg/kg) body weight; Treatment Group 5: Compound 1 at 0.1 mL/kg (10 mg/kg) body weight plus amitraz at 0.04 mL/kg (8 mg/kg) body weight; Treatment Group 6: fipronil at 0.1 mL/kg (10 mg/kg) body weight plus amitraz at 0.04 mL/kg (8 mg/kg) body weight. Treatment was applied by parting the hair and applying the formulation(s) directly onto the skin on one spot at the midline of the neck, except for Groups 4, 5 and 6 which were applied in approximately equal volumes on two spots, one spot between the base of the skull and the shoulder blades and the other at the front of the shoulder blades.
All dogs were infested with approximately 50 Rhipicephalus sanguineus ticks on Days −1, 7, 14, 21, 28, 35, 42, 49 and 56. Dogs were also infested with approximately 100 Ctenocephalides felis fleas on Days −1, 8, 15, 22, 29, 36, 43, 50 and 57. […] Tables 8 and 9 below show the % efficacy of formulations comprising fipronil at 0.1 ml/kg of body weight, Compound 1 at […], and fipronil and Compound 1 both at 10 ml/kg in combination with amitraz at 0.04 ml/kg of body weight compared to control group without active compounds. The percent reduction in flea counts of the treated groups with respect to the Control group over the study is shown in FIG. 14.

[3] = tested on: Ctenocephalides felis; experiment: Study D: flea efficacy of Compound 1 and fipronil in cats; type: in vivo
Method: A fourth clinical study was conducted to determine the efficacy of topically administered Compound 1 and fipronil against induced infections of Ctenocephalides felis in cats. Twenty four cats (17 males, 7 females) were included in the study. Six replicates of four cats each were formed based on decreasing Day −5 flea counts. Within replicates, cats were randomly allocated to Treatment Groups 1, 2, 3 or 4, respectively, by using a die: Group 1—untreated (vehicle control); Group 2—Compound 1 (10 mg/kg); Group 3—Compound 1 (20 mg/kg); Group 4—fipronil (10 mg/kg). Treatment was performed by topical administration of the formulations in the midline of the neck, between the base of the skull and the shoulder blades in a single spot after parting the hair. Animals were observed hourly for approximately four hours following treatment.
The cats were infested with approximately 100 Ct. felis fleas each during acclimation on Day −6 for allocation purposes, and on Days −1, 14, 21, 28, 35 and 42 for treatment efficacy evaluation purposes. The fleas were removed by combing each cat approximately 24 hours following each infestation except for the Day −1 infestation which was followed by flea removal and count on Day 1 (˜48 hours following infestation).

[4] = Stability of formulations comprising Compound 1, accelerated @ 50° C., HPLC; type: physicochemical; conditions: solvents or combinations of solvents in Table 1
Method: Compound 1 (3-cyano-1-(2-chloro-6-fluoro-4-trifluoromethylphenyl)-4-dichlorofluoromethylsulfinyl-5-methyl-1H-pyrazole) was dissolved in a solvent or a combination of two or more solvents at 10% w/w. The formulations thus prepared were analyzed, using HPLC, for the content of compound 1 as the initial timepoint reading. Then all formulations were placed at 50° C., and the content of compound 1 in each of them was analyzed at the timepoints of two, four, six and, in some cases, 10 weeks. […] Thus formulations of Compound 1 in the solvents/carriers identified below are shown to be sufficiently stable.

Row | Compound | % Efficacy (Tick Efficacy) ([2]; Day 1, 10 mg/kg) [%] | % Efficacy (Tick Efficacy) ([2]; Day 2, 10 mg/kg) [%] | % Efficacy (Tick Efficacy) ([2]; Day 8, 10 mg/kg) [%] | % Efficacy (Tick Efficacy) ([2]; Day 9, 10 mg/kg) [%] | % Efficacy (Tick Efficacy) ([2]; Day 15, 10 mg/kg) [%] | % Efficacy (Tick Efficacy) ([2]; Day 16, 10 mg/kg) [%] | % Efficacy (Tick Efficacy) ([2]; Day 23, 10 mg/kg) [%] | % Efficacy (Tick Efficacy) ([2]; Day 30, 10 mg/kg) [%] | % Efficacy (Tick Efficacy) ([2]; Day 37, 10 mg/kg) [%] | % Efficacy (Tick Efficacy) ([2]; Day 44, 10 mg/kg) [%] | % Efficacy (Tick Efficacy) ([2]; Day 51, 10 mg/kg) [%] | % Efficacy (Tick Efficacy) ([2]; Day 58, 10 mg/kg) [%] | % Efficacy against fleas ([3]; Day 1, 10 mg/kg) [%] | % Efficacy against fleas ([3]; Day 15, 10 mg/kg) [%] | % Efficacy against fleas ([3]; Day 22, 10 mg/kg) [%] | % Efficacy against fleas ([3]; Day 29, 10 mg/kg) [%] | % Efficacy against fleas ([3]; Day 36, 10 mg/kg) [%] | % Efficacy against fleas ([3]; Day 43, 10 mg/kg) [%] | also measured
1 | Cc1ccc(/N=C/N(C)/C=N/c2ccc(C)cc2C)c(C)c1 [Amitraz, amitraz] | – | – | – | – | – | – | – | – | – | – | – | – | – | – | – | – | – | – | Amitraz % theoretical ([1]; 1 month at 50° C.): 93 % theoretical; Amitraz % theoretical ([1]; 2 months at 50° C.): 98 % theoretical; Amitraz % theoretical ([1]; 3 months at 50° C.): 100 % theoretical
2 | Cc1c([S+]([O-])C(F)(Cl)Cl)c(C#N)nn1-c1c(F)cc(C(F)(F)F)cc1Cl (stereo not shown) [Compound 1, 3-cyano-1-(2-chloro-6-fluoro-4-trifluoromethylphenyl)-4-dichlorofluoromethylsulfinyl-5-methyl-1H-pyrazole] | 88.1 | 96.8 | 93.5 | 97.7 | 98.5 | 100 | 98.4 | 99 | 94.3 | 92.4 | 84.7 | 83.1 | 99.84 | 99.81 | 100 | 100 | 99.43 | 97.28 | % Efficacy (Tick Efficacy) ([2]; Day 1, 20 mg/kg): 98.6%; % Efficacy (Tick Efficacy) ([2]; Day 2, 20 mg/kg): 98.9%; % Efficacy (Tick Efficacy) ([2]; Day 8, 20 mg/kg): 98.6%; % Efficacy (Tick Efficacy) ([2]; Day 9, 20 mg/kg): 100%; % Efficacy (Tick Efficacy) ([2]; Day 15, 20 mg/kg): 99.3%; % Efficacy (Tick Efficacy) ([2]; Day 16, 20 mg/kg): 100%; % Efficacy (Tick Efficacy) ([2]; Day 23, 20 mg/kg): 100%; % Efficacy (Tick Efficacy) ([2]; Day 30, 20 mg/kg): 99.5%; % Efficacy (Tick Efficacy) ([2]; Day 37, 20 mg/kg): 98.6%; % Efficacy (Tick Efficacy) ([2]; Day 44, 20 mg/kg): 92.3%; % Efficacy (Tick Efficacy) ([2]; Day 51, 20 mg/kg): 86.5%; % Efficacy (Tick Efficacy) ([2]; Day 58, 20 mg/kg): 87.4%; % Efficacy against fleas ([3]; Day 1, 20 mg/kg): 100%; % Efficacy against fleas ([3]; Day 15, 20 mg/kg): 100%; % Efficacy against fleas ([3]; Day 22, 20 mg/kg): 100%; % Efficacy against fleas ([3]; Day 29, 20 mg/kg): 100%; % Efficacy against fleas ([3]; Day 36, 20 mg/kg): 100%; % Efficacy against fleas ([3]; Day 43, 20 mg/kg): 100%; stability of Compound 1 [4]: good stability
3 | N#Cc1nn(-c2c(Cl)cc(C(F)(F)F)cc2Cl)c(N)c1[S+]([O-])C(F)(F)F (stereo not shown) [fipronil, 5-amino-3-cyano-1-(2,6-dichloro-4-trifluoromethylphenyl)-4-trifluoromethylsulfinylpyrazole] | 88.6 | 90.9 | 99.4 | 100 | 100 | 100 | 98.8 | 100 | 99 | 98.2 | 92.8 | 82.7 | 97.96 | 100 | 100 | 95.59 | 99.24 | 97.81 | –
